From patent publication EP2229935A1, “Peptide derivatives or pharmaceutically acceptable salts thereof, method for producing the same, use of said derivatives and pharmaceutical composition” (Nebolsin, Vladimir Evgenievich, priority 1997, dated 1999)
Like-named read-outs stand apart in the source and are kept apart here. Marks after values point to notes of the source that are not given here.

Key:
[1] = test system: white mongrel male rats; assay: Carrageenan paw edema, oral administration (series I); format: in vivo; settings: once 20 µg/kg 1 hour before edema induction
Method: Experiment was carried out on white mongrel male rats weighing 280-300 g. Carrageenan-induced edema was caused according to the method of Winter et al. [[inter et al. In: De Rosa M., Giroud J.P., Willoughby D.A. Studies of the mediators of the acute inflammatory reponse induced in rats in different sites by carrageenan and turpentine. […] Paw volume measurement was done using a plethysmograph (Ugo Basile) 1, 3 and 4 hours after carrageenan administration. Inhibition of inflammatory reaction expressed in percent, was calculated according to the formula: 100-[(R-L(exper.))/(L):(R-L(control))/(L)x100](%) [formula] where R - the right paw volume, L - the left paw volume.
Series I of experiment. […] The reference drug Naproxene was once administered at a dose 20 µg/kg 1 hour before edema induction. Each group included 10 animals.

[2] = test system: white mongrel male rats; assay: Paw edema induced by Freund's complete adjuvant; format: in vivo; settings: rats, FCA edema; once 50 µg/kg 1 hour before edema induction
Method: Experiment was carried out on white mongrel male rats weghing 280-300 g. The model of paw edema induced by Freund's complete adjuvant (FCA), was reproduced according to the method of Ezamuzie and Umezurike [Ezamuzie Ch., Umezurike C.C. Effect of histamine H2-receptor antagonists on acute inflammatory of the rat paw oedema. J. Pharmacol. (1989), Vol. 41, pp. 261-265]. Paw volume measurement was done using a plethysmograph (Ugo Basile). Inhibition of inflammatory reaction expressed in percent, as calculated according to the formula: 100-[(R-L(exper.))/(L):(R-L(control))/(L)x100](%) [formula] where R - the right paw volume, L - the left paw volume.
Each group included 10 animals.
Group of animals: • Group 1 - control, animals were administered 0.5 ml of 1% starch solution. • Group 2 - animals were administered the compound XLVIII. • Group 3 - animals were administered the compound III. • Group 4 - animals were administered Naproxene.

[3] = test system: mongrel rats; assay: Antiischemic activity: necrosis zone after coronary artery occlusion (myocardial infarction); format: in vivo; settings: 4 hours after occlusion, single intraperitoneal immediately after occlusion, 1000 µg/kg
Method: Antiischemic activity of a compound was assessed by an integral test, i.e. effect on the necrosis zone area following reproduction of myocardial infarction in mongrel rats weighing 250-300 g.
Effect of a compound on the necrosis zone area was studied in 4 hours after arterial occlusion in rats using a differential indicator method [Sernov L.N., Gatsura V.V. A differential indicator method for determinig ischemic and necrotic zone in experimental myocardial infarction in rats. Bulletin of Experimental Biology and Medicine (1989), No 5, pp. 534-535]. All the painful manipulations were performed on animals under Ethaminal anesthesia (Ethaminal - 40 mg/kg intraperitoneally). Experiment was carried out in 15 hours after the last compound administration. Each group included 8 animals.
Groups of animals: • Group 1 - intact control -administration of normal saline four times. • Groups 2 and 3 - oral administration of the compound III at doses respectively 50 and 500 µg/kg for 4 days. • Group 4 - single intraperitoneal administration of Nicorandil at a dose 1 mg/kg immediately after occlusion.

[4] = test system: superoxide anion-radical; assay: Superoxide anion-radical formation in the xantine-xantine oxidase system (chemiluminescence); format: biochemical
Method: Effect of the compounds of general formula (I) on change in chemiluminescence (CL) determined by hydroxyl radical ( OH) and superoxide anion-radical (O2-), in the model chemical and enzymatic systems.
5 to 10 ml of the test compounds dissolved in water were at needed concentration introduced into a cuvette. A total sample volume was 0.5 ml. • B. Superoxide anion-radical in the mixture of xantine and xantine oxidase [Afanas'ev I., Suslova T., Cheremisina Z. et al. Study of antioxidant properties of metal aspartates.
Incubation medium comprised 5 mM KH2PO4; 0.2 IU/ml xantine oxidase. Xantine at concentration 1 mM was introduced into sample through a dispencer. Luceginine (0.2 mM) was used in this system as luminiscence sensitizer.
CL signal indication was performed by its integration every 10 seconds for 5 minutes. CL flash recording duration after mixing ingredients, depended on a particular process kinetics. For each system, CL light sum (mV) was determined in the control samples without preparations (I-) and in samples comprising respective concentrations of preparations (I+). To estimate CL inhibition (activation) degree, the I+/I- ratio (in relative units) was found in the studied systems.
AOF formation and effect of the test compounds on this process were recorded on the Luminometer-1251 instrument (LKB, Sweden).
Because of such "distension" of the kinetic curve, chemiluminescence light sum was recorded during the first 3-5 minutes which reflected a total amount of light quantums produced in the system till achieving the maximum CL intensity values.

[5] = test system: hydroxyl radical; assay: Hydroxyl radical formation in the Fenton reagent (chemiluminescence); format: biochemical
Method: Active oxygen forms (AOF) of different nature were generated in the following systems: • A. Hydroxyl radical - in the mixture of FeSO4 with H2O2 (the Fenton reagent) [Halliwell B. Superoxide-dependent formation of hydroxyl radicals in the presence of iron salts. […] Incubation medium comprised 5 mM KH2PO4 (pH 7.4); 5 mM FeSO4; 2 mM luminol. H2O2 at final concentration 5 mM was introduced into a cuvette through a dispencer following background luminescence recording of the reagents' mixture. 5 to 10 ml of the test compounds dissolved in water were at needed concentration introduced into a cuvette.
CL flash recording duration after mixing ingredients, depended on a particular process kinetics. For each system, CL light sum (mV) was determined in the control samples without preparations (I-) and in samples comprising respective concentrations of preparations (I+). To estimate CL inhibition (activation) degree, the I+/I- ratio (in relative units) was found in the studied systems.
When H2O2 was introduced into phosphate buffer comprising iron sulfate, CL flash occured which was caused by formation of predominantly hydroxyl radical in the reaction mixture.

[6] = test system: peritoneal macrophages; assay: Activity of peritoneal macrophages (NBT reduction test); format: in vivo, mongrel white male mice
Method: Change in the activity of peritoneal macrophages (PM) as effected by the test compounds was studied.
Experiments were carried out on mongrel white male mice with initial body mass 20-22 g. Each group included 10 animals. Compounds III, VI, XLIV were dissolved in normal saline (NS). The test compounds were administered to animals orally for three days at doses 50 and 500 µg/kg. Animals of the control group were given equal volume of NS. Mice were sacrified 20 hours after the last compound administration, peritoneal cavity was washed with 1.5 ml Henks solution comprising 5 U/ml heparine. 0.1 ml of wash solution were incubated for 30 minutes at 37°C with 0.1 ml 0.2% nitroblue tetrasolium (NBT) solution, then smears were prepared. Nuclei were additionaly stained with o.1% neutral red solution. Results were expressed in percent of active cells [Klimov V.V., Kolovkina T.V. Nitroblue tetrasolium reduction test stimulated with pyrogenal. Laborotornoye delo (Laboratory matter) (1982), No 10, pp. 624-625]. […]

[7] = test system: mongrel male rats; assay: Hypolipidemic activity: experimental hyperlipidemia (atherogenic load); settings: atherogenic diet, oral last four days; for HDL-CS / Total CS / Triglycerides: blood; for Kcs: cholesterol index;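 on all read-outs here: serum drawn 18 h after the final dose from rats deprived of food over that interval, groups of 10 animals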
Method: (§1) Hypolipidemic activity of the compounds of general formula (I) was studied on the model of experimental hyperlipidemia [Arichi H., Kumura H.O. Effects of stibens compounds of roots of polygonum cuspidatium on the lipid metabolism. […] Each group of animals included 10 rats. […] Blood samples were taken for analysis 18 hours after the last administration of the test substances during which period food was taken away from rats.
(§2) The following parameters were determined: total cholesterol (total CS); high density lipoprotein cholesterol (HDL-CS); low density lipoprotein cholesterol and very low density lipoprotein cholesterol (LDL-CS and VLDL-CS); triglycerides (TG). Blood serum CS level was determined according to the Ilk method [Biochemical examination in the clinic. […] HDL-CS level was measured in supernatant following heparine-manganese precipitation of LDL+VLDL [Titov V.N., Brener E.D., Khaltaiev N.G., Zadoya A.A., Tvorogova M.G. A method and diagnostic significance of cholesterol level study in α-lipoproteins. […] LDL-CS level determination was carried out by calculation according to the formula presented in the work Friedwald W.T. [Friedwald W.T., Levy K.J., Leus R. Fat transport in lipoproteins: an integrated approach to mechanism and disorders.
(§3) To assess the effect of the test compounds on the ratio of atherogenic and antiatherogenic blood serum lipoproteins, cholesterol index (Kcs) was calculated according to the formula presented in the work [Klimov A.N., Nikulcheva N.G. Lipoproteins, dylipoproteinemias and atherosclerosis.
(§4) Blood serum TG level was determined using the conventional method [Friedwald W.T., Levy R.I., Fredrickson D.S. Estimation of concentration of low-density lipoprotein cholesterol in plasma, without use of preparative ultracentrifuge.

[8] = test system: Isolate HIV-1/IV17 of type 1 human immunodeficiency virus; assay: Viability of MT-4 cells acutely infected with HIV-1; format: cell-based; settings: Human immunodeficiency virus 1, MT4, 168 h, day 7, series 2 (infected cells 24, non-infected 88), read-out: Viability of cells in percent
Method: Study was carried out on the culture of human lymphoblastoid cells MT-4. Isolate HIV-1/IV17 of type 1 human immunodeficiency virus from the collection of the D.I.Ivanovsky Institute for Virology was used in experiment. The test compounds of general formula (I): III, VI, VII were introduced into cellular culture at concentrations 1.0; 0.1 and 0.01 µg/ml. The reference drug Azidothymidine was introduced at a dose 0.05 µM/ml. The compounds were introduced into the culture of MT-4 cells at a dose 1000 TCD50 one hour prior to virus introduction. Viability of MT-4 cells was estimated by day 7 of experiment.
Viability of cells was the main efficacy parameter of the test compounds.

[9] = test system: Strain Aichi of type A human influenza virus; format: in vivo; settings: for MLT, days: series with Control - 2 (9.1), 3 days before and 10 days following infection; for Survival rate in percent: series with Control - 2 (34.5); for Protection degree in percent: series with Control - 2
[10] = test system: hepatic P-450 cytochrome system; assay: Hexenal sleep duration in mice; format: in vivo; settings: CBF1 mice, oral 3 days, control 25.91 ± 1.57
Method: Change in Hexenal sleep (HS) duration is the in vivo measurable index of hepatic P-450 cytochrome system condition.
Studies were carried out on male mice of the lines BALB/c*h75, C57B1/6, CBA, DBA/2, first generation CBF1 and BDF1 hybrides, with initial mass 18-20 g, each group including 10 mice; and on mongrel male guinea pigs with initial mass 250-300 g, each group including 24 animals. All the test compounds (from II to LII) were administered orally in drinking water and for three days at doses 50 and 500 µg/kg. Hexenal hydrochloride at a dose […] of animal mass was administered 24 hours after the last drug administration, except for line BALB/c*h75 mice, which were administered Hexenal at a dose 60 µg/kg at the same terms, and guinea pigs for which Hexenal dose was 30 µg/kg. HS duration was determined in minutes.

[11] = test system: Lewis pulmonary carcinoma (LLC); assay: Lewis pulmonary carcinoma spontaneous metastasizing, oral administration; format: in vivo; settings: BDF1 female mice with LLC, oral 24 days; for Mean number of metastases: day 25
Method: Each group included 15 animals. 0.3 ml of LLC tumor tissue suspension was intramuscularly injected to mice. Henks solution was used as a solvent. […] Moscow (1992) 13 pp.]. […]

[12] = test system: mongrel male rats; settings: po, 96 h
Method: as §1, §2, §3, §4

[13] = 0.01 mM, control of the series as in the table
[14] = 0.1 mM, control of the series as in the table

Q: What does the source list for `COc1ccc2cc([C@H](C)C(=O)O)ccc2c1` [Naproxene, reference compound]?
A: Inflammation inhibition (%) [1]: 37%; Volume increment [1]: 0.48 ± 0.02; Volume of paws (conditional units) Right [1]: 1.82 ± 0.54 conditional units; Volume of paws (conditional units) left [1]: 1.34 ± 0.25 conditional units; Inflammation inhibition (%) [2]: 44%; Volume increment [2]: 0.45 ± 0.02; Volume of paws (conditional units) Right [2]: 1.75 ± 0.54 conditional units; Volume of paws (conditional units) left [2]: 1.30 ± 0.25 conditional units

Q: Which “Ischemia zone, percent to the total myocardial mass” value [3] does the source give for `O=C(NCCO[N+](=O)[O-])c1cccnc1` [Nicorandil, reference compound] here?
A: 25,0 ± 1,9%

Q: What about the “Necrosis zone percent to myocardial zone” value [3] of the same molecule?
A: 44,3 ± 5,0%

Q: And the “Necrosis zone, percent to the total myocardial mass” value [3]?
A: 11,3 ± 1,6%

Q: How did the “Chemiluminiscence intensity (mV) + σn-1” value [4, 13] turn out when `CC(=O)N[C@@H](CCC(=O)NCCc1c[nH]cn1)C(=O)O` [VI, N -ACETHYL-γ-L-GLUTAMYLHISTAMINE] was run?
A: 7295 ± 106 mV

Q: What about the “relative effect: 1+/I-” value ([4]; 0.1 mM) of the same molecule?
A: 0.76

Q: What about the “Chemiluminiscence intensity (mV) + σn-1” value [4, 14] of the same molecule?
A: 5518 ± 131 mV

Q: What about the “relative effect: 1+/I-” value ([4]; 1 mM) of the same molecule?
A: 0.12

Q: What about the “Chemiluminiscence intensity (mV) + σn-1” value ([4]; 1 mM, control of the series 5616 ± 173, 5391 ± 195, 7290 ± 128 or 6776 ± 150) of the same molecule?
A: 902 ± 15 mV

Q: What about the “Chemiluminiscence intensity (mV) + σn-1” value [5, 13] of the same molecule?
A: 5014 ± 186 mV

Q: What about the “relative effect: I+/I-” value ([5]; 0.1 mM) of the same molecule?
A: 0.63

Q: And the “Chemiluminiscence intensity (mV) + σn-1” value [5, 14]?
A: 3110 ± 210 mV

Q: What about the “relative effect: I+/I-” value ([5]; 1 mM) of the same molecule?
A: 0.05

Q: And the “Chemiluminiscence intensity (mV) + σn-1” value ([5]; 1 mM, control of the series 7839 ± 171, 1120 ± 163, 4974 ± 283 or 1332 ± 172)?
A: 257 ± 74 mV

Q: And the “portion of active macrophages” value ([6]; mice, oral three days at 50 and 500 µg/kg)?
A: at a dose 50 µg/kg

Q: And the “Activity of macrophages, percent” value ([6]; score 0 (no formazane inclusions, inactive PM), 50 µg/kg orally for three days)?
A: 17.9 ± 1.4%

Q: And the “Activity of macrophages, percent” value ([6]; score 0 (no formazane inclusions, inactive PM), 500 µg/kg orally for three days)?
A: 20.3 ± 3.4%

Q: And the “Activity of macrophages, percent” value ([6]; score 1 (single formazane inclusions), 50 µg/kg orally for three days)?
A: 30.9 ± 3.0%

Q: And the “Activity of macrophages, percent” value ([6]; score 1 (single formazane inclusions), 500 µg/kg orally for three days)?
A: 37.9 ± 3.1%

Q: What about the “Activity of macrophages, percent” value ([6]; score 2 (inclusions fill up to 1/3 of PM cytoplasm), 50 µg/kg orally for three days) of the same molecule?
A: 40.3 ± 2.1%

Q: What about the “Activity of macrophages, percent” value ([6]; score 2 (inclusions fill up to 1/3 of PM cytoplasm), 500 µg/kg orally for three days) of the same molecule?
A: 34.0 ± 4.0%

Q: And the “Activity of macrophages, percent” value ([6]; score 3 (inclusions fill up to 1/2 of PM cytoplasm), 50 µg/kg orally for three days)?
A: 10.4 ± 1.9%

Q: And the “Activity of macrophages, percent” value ([6]; score 3 (inclusions fill up to 1/2 of PM cytoplasm), 500 µg/kg orally for three days)?
A: 7.1 ± 2.0%

Q: What about the HDL-CS ([7]; 50 µg/kg) of the same molecule?
A: 35,7±5,6*^A

Q: What about the “Total CS” value ([7]; 50 µg/kg) of the same molecule?
A: 86,0±5,2

Q: What about the Triglycerides ([7]; 50 µg/kg) of the same molecule?
A: 141,2±16,1***^A

Q: What about the HDL-CS ([7]; 500 µg/kg) of the same molecule?
A: 45,8±3,5***^A

Q: And the “Total CS” value ([7]; 500 µg/kg)?
A: 70,8±3,7***^A

Q: And the Triglycerides ([7]; 500 µg/kg)?
A: 127,2+7,1***^A

Q: And the Kcs ([7]; 50 µg/kg)?
A: 1,41±0,16***^A

Q: And the Kcs ([7]; 500 µg/kg)?
A: 0,55±0,04***^A

Q: And the viability at 0.01 µg/mL ([8]; 0.01 µg/ml)?
A: 45%

Q: What about the viability at 0.1 µg/mL ([8]; 0.1 µg/ml) of the same molecule?
A: 49%

Q: And the viability at 1 µg/mL ([8]; 1.0 µg/ml)?
A: 54%

Q: What about the “MLT, days” value ([9]; 50 µg/kg orally) of the same molecule?
A: 11.24*^2 days

Q: And the “MLT, days” value ([9]; 500 µg/kg orally)?
A: 11.62*^2 days

Q: What about the “Survival rate in percent” value ([9]; 50 µg/kg orally) of the same molecule?
A: 73.3*^2%

Q: What about the “Survival rate in percent” value ([9]; 500 µg/kg orally) of the same molecule?
A: 79.3*^2%

Q: What about the “Protection degree in percent” value ([9]; 50 µg/kg orally) of the same molecule?
A: 38.8%

Q: What about the “Protection degree in percent” value ([9]; 500 µg/kg orally) of the same molecule?
A: 44.8%

Q: And the “Hexenal sleep duration (minutes)” value ([10]; 50 µg/kg)?
A: 16.86 ± 1.38*** minutes

Q: And the “Hexenal sleep duration (minutes)” value ([10]; 500 µg/kg)?
A: 14.39 ± 1.73*** minutes

Q: What about the “Mean number of metastases” value ([11]; 50 µg/kg) of the same molecule?
A: 35.5 ± 4.5*^2

Q: And the “Mean number of metastases” value ([11]; 500 µg/kg)?
A: 39.0 ± 14.0

Q: What about the Metastasizing inhibition percent ([11]; 50 µg/kg) of the same molecule?
A: 24.0%

Q: What about the Metastasizing inhibition percent ([11]; 500 µg/kg) of the same molecule?
A: 17.0%

Q: What about the “LDL-CS+ VLDL-CS” value ([12]; 0.05 mg/kg) of the same molecule?
A: 50,3±5,5**^A

Q: And the “LDL-CS+ VLDL-CS” value ([12]; 0.5 mg/kg)?
A: 25,0±1,6***^A
